Reference: patent US20230123334A1, “AMINO LIPID COMPOUND, PREPARATION METHOD THEREFOR, AND APPLICATION THEREOF” (SHENZHEN SHENXIN BIOTECHNOLOGY CO., LTD., priority 2020, published 2023)

Legend:
[1] = system: HEK293 cells; experiment: Preliminary screening as DNA vectors, GFP transfection of HEK293 cells; assay type: cell-based; conditions: HEK293 cells; lipid/DOPE liposome with 75 ng plasmid DNA (psin-EGFP-IRES-Puro); number of cells expressing GFP divided by total number of nuclei (Hoechst)
How it was run: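 First, amino lipid and DOPE were vortexed in sodium acetate buffer (pH 5.6) to form liposomes. Next, these were held with 75 ng EGFP plasmid at room temperature for 30 min. Finally, HEK293 cells were added, cultured at 37° C., Hoechst-stained, and GFP+/total nuclei scored by imaging.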

[2] = system: HEK293 cells; experiment: Preliminary screening as mRNA vectors, EGFP mRNA transfection of HEK293 cells; assay type: cell-based; conditions: HEK293 cells, 96-well plates, EGFP mRNA 50 ng per well; percentage of GFP fluorescent cells relative to total number of cells (Hoechst)
How it was run: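 Screening format: EGFP mRNA transfection (50 ng/well) into HEK293 in 10% FBS-supplemented DMEM. Percent green fluorescent cells, normalised to Hoechst nuclear count, gave the value; Lipofectamine2000 was the reference transfectant.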

[3] = system: BALB/c mice; experiment: In vivo delivery of luciferase mRNA (Fluc mRNA) by lipid nanoparticles, in vivo imaging; conditions: 0.5 mg/kg Fluc mRNA, after 12 hours
Method: (§1) The amino lipid compound of the invention was mixed with DOPE, cholesterol and PEG2000-DMG in a molar ratio of 45:10:42.5:2.5, and dissolved in absolute ethanol such that the molar concentration of the amino lipid compound was 0.001-0.01 mmol/L. By using a microinjection pump, the resultant ethanol solution and a sodium acetate solution (50 mM, pH=4.0) in which luciferase mRNA (Fluc mRNA, TriLink) was dissolved were mixed in a volume ratio of 1:3 in a microchannel chip to prepare a crude solution of lipid nanoparticles, which was then dialyzed in 1×PBS at a controlled temperature of 4° C. for 6 h using a dialysis box (Fisher, MWCO 20,000) and filtered through a 0.22 μm microporous filter membrane before use. The mass ratio of the amino lipid compound to Fluc mRNA was about 10:1. The resultant solution of lipid nanoparticles (LNPs) was administered to the tested animals by subcutaneous administration.
(§2) The preparation method was the same as Formulation method 1, except that amino lipid compound, DSPC, cholesterol and PEG2000-DMG were used in a molar ratio of 50:10:38.5: 1.5. The resultant solution of lipid nanoparticles (LNPs) was administered to the tested animals by tail vein and intramuscular injection.
Animal Preparation: 6-week aged female BALB/c mice weighed about 20 g were selected and fed in a SPF-grade feeding room. Animal tests were conducted strictly according to the guidelines of national health institutions and the requirements of animal ethics.
In vivo delivery: 9 mice were assigned randomly to each group, and the lipid nanoparticle solution was injected by three routes of administration, i.e., subcutaneous, intramuscular and tail vein injection at a dosage of 0.5 mg/kg Fluc mRNA (3 mice for each route of administration). After 12 hours, 200 μL of 10 mg/mL potassium salt of […] (PerkinElmer) was injected into each mouse through the tail vein. After 10 min, the mice were placed under an in vivo imaging system (IVIS-200, Xenogen) to observe the total fluorescence intensity of each mouse and take photographs for record. The expression intensity of Fluc mRNA delivered by representative amino lipid compounds through the three routes of administration are shown in Table 5-7. DLin-MC3 was used as control.

[4] = Particle size and PDI of lipid nanoparticles (Nano-ZSZEN3600, Malvern); assay type: physicochemical; conditions: LNPs; for Particle size (nm): Fluc mRNA
Method: as §1
Characterization of particle size: the particle size and PDI of the prepared lipid nanoparticles were determined by Nano-ZSZEN3600 (Malvern). 40 uL of LNP solution was taken for particle size measurement with circulation for three times, 30 s for each circulation.
as §2

[5] = Encapsulation rate of LNP RNA (Qubit RNA HS Assay kit); assay type: physicochemical; conditions: LNPs
Method: as §1
Detection of encapsulation rate: the concentration of LNP RNA was detected by Qubit® RNA HS Assay kit. The theoretical RNA concentration was given by the total amount of RNA input divided by the total volume of the final solution.
as §2

[6] = system: Hela cells; experiment: Transfection of Hela cell line, mRNA vectors; assay type: cell-based; conditions: 50 ng EGFP mRNA per well
How it was run: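 Transfection efficiency was scored as GFP-fluorescent cells over Hoechst-stained total nuclei, with Lipofectamine2000 as reference reagent. Each well of HeLa cells, grown in DMEM plus 10% FBS, received 50 ng EGFP mRNA.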

[7] = system: Hela cells; experiment: Transfection of Hela cell line, DNA vectors; assay type: cell-based; conditions: 75 ng plasmid DNA, GFP cells / total cells
How it was run: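 Amino lipid/DOPE liposomes in sodium acetate pH 5.6 were complexed with 75 ng psin-EGFP-IRES-Puro plasmid for 30 min at room temperature, then mixed with 3-5×10^4 Hela cells in DMEM/10% FBS at 37° C. Hoechst stain after 20-24 h, imaging after a further 20-24 h. Efficiency = GFP-positive cells / total nuclei.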

[8] = system: MCF7 cells; experiment: Transfection of MCF7 cell line, DNA vectors; assay type: cell-based; parameters: concentration or dose not given beside the values; conditions: plasmid DNA, GFP cells / total cells
How it was run: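 Read-out: GFP-positive cells as % of all Hoechst-stained nuclei after 96-well transfection of MCF7 cells grown in serum-supplemented DMEM. Positive control was Lipofectamine2000, used per manufacturer's protocol.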

[9] = system: MCF7 cells; experiment: Transfection of MCF7 cell line, mRNA vectors; assay type: cell-based; conditions: 50 ng EGFP mRNA per well
How it was run: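 Efficiency was scored as the fraction of GFP-fluorescent cells over all Hoechst-counted cells after delivery of 50 ng EGFP mRNA per well. Cells were MCF7 grown in serum-supplemented DMEM, and Lipofectamine2000 served as reference.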

[10] = Formulation Method 1 (amino lipid:DOPE:cholesterol:PEG2000-DMG 45:10:42.5:2.5)
[11] = Formulation method 2 (amino lipid:DSPC:cholesterol:PEG2000-DMG 50:10:38.5:1.5)

## CCCCCCCCCCCCSc1nc(NCCCN2CCOCC2)nc(SCCCCCCCCCCC)n1 [Compound S11S12D8]
[1]
  Absolute DNA transfection efficiency in HEK293 cells: 10.7%
[2]
  Absolute mRNA transfection efficiency in HEK293 cells: 6.7%
[3]; intramuscular administration
  Fluorescence intensity (expression intensity of Fluc mRNA): 4.7E+06
[3]; subcutaneous administration
  Fluorescence intensity (expression intensity of Fluc mRNA): 1.1E+07
[3]; tail vein administration
  Fluorescence intensity (expression intensity of Fluc mRNA): 3.8E+06
[4]; Formulation Method 1
  PDI: 0.02
[4]; [10]
  Particle size (nm): 80 ± 5 nm
[4]; Formulation method 2
  PDI: 0.01
[4]; [11]
  Particle size (nm): 90 ± 5 nm
[5]; Formulation Method 1
  Encapsulation rate: 98.3%
[5]; Formulation method 2
  Encapsulation rate: 98.9%

## CCCCCCCCCCCCCCCCSc1nc(NCCCCCCCCC)nc(NCCN2CCCC2)n1 [Compound S16N9D3]
[3]; intramuscular administration
  Fluorescence intensity (expression intensity of Fluc mRNA): 4.3E+06
[3]; subcutaneous administration
  Fluorescence intensity (expression intensity of Fluc mRNA): 2.7E+07
[3]; tail vein administration
  Fluorescence intensity (expression intensity of Fluc mRNA): 5.3E+06
[4]; Formulation Method 1
  PDI: 0.08
[4]; [10]
  Particle size (nm): 87 ± 4 nm
[4]; Formulation method 2
  PDI: 0.06
[4]; [11]
  Particle size (nm): 127 ± 5 nm
[5]; Formulation Method 1
  Encapsulation rate: 98.9%
[5]; Formulation method 2
  Encapsulation rate: 99.1%

## CCCCC/C=C\C/C=C\CCCCCCCCC(CCCCCCCC/C=C\C/C=C\CCCCC)OC(=O)CCCN(C)C [DLin-MC3, reference compound]
[3]; intramuscular administration
  Fluorescence intensity (expression intensity of Fluc mRNA): 2.7E+07
[3]; subcutaneous administration
  Fluorescence intensity (expression intensity of Fluc mRNA): 3.1E+06
[3]; tail vein administration
  Fluorescence intensity (expression intensity of Fluc mRNA): 2.7E+07

## CCCCCCCCCCCCCNc1nc(NCCCN(C)C)nc(SCCCCCCCCCCCC)n1 [Compound S12N13D6]
[3]; intramuscular administration
  Fluorescence intensity (expression intensity of Fluc mRNA): 1.2E+06
[3]; subcutaneous administration
  Fluorescence intensity (expression intensity of Fluc mRNA): 8.6E+06
[3]; tail vein administration
  Fluorescence intensity (expression intensity of Fluc mRNA): 3.9E+06
[4]; Formulation Method 1
  PDI: 0.05
[4]; [10]
  Particle size (nm): 89 ± 5 nm
[4]; Formulation method 2
  PDI: 0.04
[4]; [11]
  Particle size (nm): 96 ± 5 nm
[5]; Formulation Method 1
  Encapsulation rate: 99.0%
[5]; Formulation method 2
  Encapsulation rate: 99.2%

## CCCCCCCCCCCCCCCCSc1nc(NCCN2CCN(C)CC2)nc(SCCCCCCCCC)n1 [Compound S9S16D5]
[1]
  Absolute DNA transfection efficiency in HEK293 cells: 23.5%
[2]
  Absolute mRNA transfection efficiency in HEK293 cells: 47.8%
[6]
  Absolute mRNA transfection efficiency in Hela cells: 11.7%
[3]; intramuscular administration
  Fluorescence intensity (expression intensity of Fluc mRNA): 5.2E+06
[3]; subcutaneous administration
  Fluorescence intensity (expression intensity of Fluc mRNA): 4.2E+07
[3]; tail vein administration
  Fluorescence intensity (expression intensity of Fluc mRNA): 7.5E+06
[4]; Formulation Method 1
  PDI: 0.04
[4]; [10]
  Particle size (nm): 152 ± 5 nm
[4]; Formulation method 2
  PDI: 0.05
[4]; [11]
  Particle size (nm): 130 ± 5 nm
[7]
  Absolute DNA transfection efficiency in Hela cells: 11.7%
[5]; Formulation Method 1
  Encapsulation rate: 99.1%
[5]; Formulation method 2
  Encapsulation rate: 99.6%
[8]
  Absolute DNA transfection efficiency in MCF7 cells: 26.6%
[9]
  Absolute mRNA transfection efficiency in MCF7 cells: 32.0%

## CCCCCCCCCCCCCCCCSc1nc(NCCCCCCCC)nc(NCC2CCN(C)CC2)n1 [Compound S16N8D10]
[3]; intramuscular administration
  Fluorescence intensity (expression intensity of Fluc mRNA): 3.9E+06
[3]; subcutaneous administration
  Fluorescence intensity (expression intensity of Fluc mRNA): 3.7E+08
[3]; tail vein administration
  Fluorescence intensity (expression intensity of Fluc mRNA): 3.2E+06
[4]; Formulation Method 1
  PDI: 0.04
[4]; [10]
  Particle size (nm): 90 ± 5 nm
[4]; Formulation method 2
  PDI: 0.03
[4]; [11]
  Particle size (nm): 120 ± 5 nm
[5]; Formulation Method 1
  Encapsulation rate: 97.2%
[5]; Formulation method 2
  Encapsulation rate: 98.6%

## CCCCCCCCCCCCCCCCSc1nc(NCC2CCN(C)CC2)nc(SCCCCCCCCCC)n1 [Compound S10S16D10]
[1]
  Absolute DNA transfection efficiency in HEK293 cells: 79.4%
[2]
  Absolute mRNA transfection efficiency in HEK293 cells: 47.4%
[3]; intramuscular administration
  Fluorescence intensity (expression intensity of Fluc mRNA): 3.2E+06
[3]; subcutaneous administration
  Fluorescence intensity (expression intensity of Fluc mRNA): 4.7E+07
[3]; tail vein administration
  Fluorescence intensity (expression intensity of Fluc mRNA): 2.9E+06
[4]; Formulation Method 1
  PDI: 0.03
[4]; [10]
  Particle size (nm): 136 ± 5 nm
[4]; Formulation method 2
  PDI: 0.04
[4]; [11]
  Particle size (nm): 125 ± 5 nm
[5]; Formulation Method 1
  Encapsulation rate: 99.5%
[5]; Formulation method 2
  Encapsulation rate: 99.2%

## CCCCCCCCCCCCCCCSc1nc(NCCCCCCCCCCC)nc(NCCN2CCN(C)CC2)n1 [Compound S15N11D5]
[3]; intramuscular administration
  Fluorescence intensity (expression intensity of Fluc mRNA): 3.7E+06
[3]; subcutaneous administration
  Fluorescence intensity (expression intensity of Fluc mRNA): 1.9E+08
[3]; tail vein administration
  Fluorescence intensity (expression intensity of Fluc mRNA): 3.7E+06
[4]; Formulation Method 1
  PDI: 0.02
[4]; [10]
  Particle size (nm): 79 ± 5 nm
[4]; Formulation method 2
  PDI: 0.01
[4]; [11]
  Particle size (nm): 95 ± 5 nm
[5]; Formulation Method 1
  Encapsulation rate: 99.2%
[5]; Formulation method 2
  Encapsulation rate: 98.8%

## CCCCCCCCCCCCCCCCSc1nc(NCCCN2CCN(C)CC2)nc(SCCCCCCCC)n1 [Compound S8S16D9]
[1]
  Absolute DNA transfection efficiency in HEK293 cells: 6.7%
[2]
  Absolute mRNA transfection efficiency in HEK293 cells: 1.5%
[3]; intramuscular administration
  Fluorescence intensity (expression intensity of Fluc mRNA): 8.2E+06
[3]; subcutaneous administration
  Fluorescence intensity (expression intensity of Fluc mRNA): 4.2E+06
[3]; tail vein administration
  Fluorescence intensity (expression intensity of Fluc mRNA): 6.5E+06
[4]; Formulation Method 1
  PDI: 0.01
[4]; [10]
  Particle size (nm): 96 ± 5 nm
[4]; Formulation method 2
  PDI: 0.02
[4]; [11]
  Particle size (nm): 115 ± 5 nm
[5]; Formulation Method 1
  Encapsulation rate: 98.7%
[5]; Formulation method 2
  Encapsulation rate: 99.4%
